Measurements taken from US8372823B2, “Tetracyclic inhibitors of fatty acid amide hydrolase” (The Scripps Research Institute, priority 2007, dated 2013).

Columns and labels:
Type in all cases: biochemical
[1] = target: T1, purified recombinant rat FAAH (Rattus norvegicus, UniProt P97612); assay: FAAH enzyme assay, Ki (Dixon plot), rat FAAH; conditions: purified recombinant rat FAAH expressed in E. coli; 14C-oleamide hydrolysis; pH 9.0; 20-23° C.
T1 construct: made in house; host or cells: E. coli
T1 sequence (P97612 1-579): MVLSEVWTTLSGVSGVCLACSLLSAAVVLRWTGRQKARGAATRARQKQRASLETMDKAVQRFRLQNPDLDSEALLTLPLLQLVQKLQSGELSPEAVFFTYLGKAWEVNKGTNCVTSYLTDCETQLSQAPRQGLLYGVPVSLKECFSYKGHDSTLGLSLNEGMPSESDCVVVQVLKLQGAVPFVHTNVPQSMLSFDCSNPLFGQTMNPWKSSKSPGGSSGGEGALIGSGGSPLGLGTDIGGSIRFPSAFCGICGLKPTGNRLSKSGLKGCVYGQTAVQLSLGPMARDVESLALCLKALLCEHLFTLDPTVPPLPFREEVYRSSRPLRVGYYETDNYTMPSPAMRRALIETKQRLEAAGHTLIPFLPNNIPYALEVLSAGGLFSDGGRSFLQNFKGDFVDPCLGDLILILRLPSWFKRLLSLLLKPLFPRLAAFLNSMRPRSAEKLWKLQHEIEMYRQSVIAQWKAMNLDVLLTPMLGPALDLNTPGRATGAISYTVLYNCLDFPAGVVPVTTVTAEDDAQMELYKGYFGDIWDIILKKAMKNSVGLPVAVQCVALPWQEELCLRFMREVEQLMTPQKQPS

rat FAAH = target: T2, rat FAAH (Rattus norvegicus, UniProt P97612); assay: FAAH inhibition IC50, rat; conditions: inhibition at 3-5 test compound concentrations
T2 construct: made in house; host or cells: E. coli
T2 sequence (P97612 1-579): T1 sequence (P97612 1-579)
Description: (§1) Enzyme assays were performed at 20-23° C. with purified recombinant rat FAAH expressed in E. coli (Patricelli, M. P.; Lashuel, H. A.; et al. Biochemistry 1998, 37, 15177-15187) (unless indicated otherwise) or with solubilized COS-7 membrane extracts from cells transiently transfected with human FAAH cDNA (Giang, D. K.; Cravatt, B. F. Proc. Natl. Acad. Sci. U.S.A. 1997, 94, 2238-2242) (where specifically indicated) in a buffer of 125 mM Tris/1 mM EDTA/0.2% glycerol/0.02% Triton X-100/0.4 mM Hepes, pH 9.0 buffer (Patricelli, M. P.; Patterson, J. P.; et al. Bioorg. Med. Chem. Lett. 1998, 8, 613-618). […] NT=no data available.
(§2) IC50 values were determined from the inhibition observed at 3-5 different test compound concentrations (from three or more trials at each concentration) using the formula IC50=[I]/[K0/Ki)-1], where K0 is the control reaction rate without inhibitor and Ki is the rate with test compound at concentration [I] (Conde-Frieboes, K. et al. J. Am. Chem. Soc. 1996, 118, 5519-5525). NT=no data available.

FAAH = target: T3, FAAH (Homo sapiens, UniProt O00519); assay: FAAH inhibition IC50, human; design: expressed in transfected cells; host or cells: COS-7 (transient transfection), solubilized membrane extracts; conditions: inhibition at 3-5 test compound concentrations
T3 sequence (O00519 1-579): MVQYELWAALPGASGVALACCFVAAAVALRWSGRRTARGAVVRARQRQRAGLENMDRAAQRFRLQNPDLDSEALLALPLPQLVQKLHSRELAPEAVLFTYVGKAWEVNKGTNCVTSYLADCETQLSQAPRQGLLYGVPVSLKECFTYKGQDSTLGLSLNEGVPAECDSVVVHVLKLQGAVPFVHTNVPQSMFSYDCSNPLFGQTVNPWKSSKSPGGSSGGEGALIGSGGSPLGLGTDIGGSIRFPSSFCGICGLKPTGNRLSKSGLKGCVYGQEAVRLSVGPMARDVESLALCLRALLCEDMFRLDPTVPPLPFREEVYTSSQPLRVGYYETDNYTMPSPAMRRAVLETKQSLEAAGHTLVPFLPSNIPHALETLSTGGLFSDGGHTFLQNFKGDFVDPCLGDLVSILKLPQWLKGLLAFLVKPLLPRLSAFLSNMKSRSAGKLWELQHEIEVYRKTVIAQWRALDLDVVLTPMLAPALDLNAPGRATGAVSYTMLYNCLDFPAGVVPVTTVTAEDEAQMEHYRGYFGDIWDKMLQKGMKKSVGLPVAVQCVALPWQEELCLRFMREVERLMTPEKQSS
Description: as §1, §2

SMILES | Ki [1] [nM] | IC50 (rat FAAH) [nM] | IC50 (FAAH) [nM]
COC(=O)c1cccc(-c2cnc(C(=O)CCc3ccc(Oc4ccccc4)cc3)o2)n1 [Example 12, 6-{2-[3-(4-Phenoxy-phenyl)-propionyl]-oxazol-5-yl}-pyridine-2-carboxylic acid methyl ester] | 13 | 5 | 2
COC(=O)c1ccc(-c2cnc(C(=O)CCc3ccc(Oc4ccccc4)cc3)o2)nc1 [Example 13, 6-{2-[3-(4-Phenoxy-phenyl)-propionyl]-oxazol-5-yl}-nicotinic acid methyl ester] | 54 | 6 | 3
O=C(O)c1cccc(-c2cnc(C(=O)CCc3ccc(Oc4ccccc4)cc3)o2)n1 [Example 14, 6-{2-[3-(4-Phenoxy-phenyl)-propionyl]-oxazol-5-yl}-pyridine-2-carboxylic acid] | 65 | 1.5 | 2.7
O=C(O)c1ccc(-c2cnc(C(=O)CCc3ccc(Oc4ccccc4)cc3)o2)nc1 [Example 15, 6-{2-[3-(4-Phenoxy-phenyl)-propionyl]-oxazol-5-yl}-nicotinic acid] | 33 | 0.2 | 0.3
COC(=O)c1cccc(-c2cnc(C(=O)CCc3ccc(COc4ccccc4)cc3)o2)n1 [Example 16, 6-{2-[3-(4-Phenoxymethyl-phenyl)-propionyl]-oxazol-5-yl}-pyridine-2-carboxylic acid methyl ester] | 2 | 1 | 1.2
COC(=O)c1ccc(-c2cnc(C(=O)CCc3ccc(COc4ccccc4)cc3)o2)nc1 [Example 17] | 3.5 | 2.5 | 0.8
O=C(O)c1cccc(-c2cnc(C(=O)CCc3ccc(COc4ccccc4)cc3)o2)n1 [Example 18, 6-{2-[3-(4-Phenoxymethyl-phenyl)-propionyl]-oxazol-5-yl}-pyridine-2-carboxylic acid] | 6.1 | 0.5 | 1
O=C(O)c1ccc(-c2cnc(C(=O)CCc3ccc(COc4ccccc4)cc3)o2)nc1 [Example 19, 6-{2-[3-(4-Phenoxymethyl-phenyl)-propionyl]-oxazol-5-yl}-nicotinic acid] | 4.6 | 2.5 | 0.8
N#Cc1cccc(-c2cnc(C(=O)CCc3ccc(-c4ccccc4)cc3)o2)n1 [Example 20, 6-[2-(3-Biphenyl-4-yl-propionyl)-oxazol-5-yl]-pyridine-2-carbonitrile] | 3 | 2 | 11
COC(=O)c1cccc(-c2cnc(C(=O)CCc3ccc(-c4ccc(CN5CCCCC5)cc4)cc3)o2)n1 [Example 34, 6-{2-[3-(4′-Piperidin-1-ylmethyl-biphenyl-4-yl)-propionyl]-oxazol-5-yl}-pyridine-2-carboxylic acid methyl ester] | 9 | – | –
COC(=O)c1cccc(-c2cnc(C(=O)CCc3ccc(-c4ccc(CN5CCSCC5)cc4)cc3)o2)n1 [Example 36, 6-{2-[3-(4′-Thiomorpholin-4-ylmethyl-biphenyl-4-yl)-propionyl]-oxazol-5-yl}-pyridine-2-carboxylic acid methyl ester] | 5 | – | –
COC(=O)c1cccc(-c2cnc(C(=O)CCc3ccc(-c4ccc(CN5CCCC5)cc4)cc3)o2)n1 [Example 37] | 18 | – | –
COC(=O)c1cccc(-c2cnc(C(=O)CCc3ccc(-c4ccc(CN(C)C)cc4)cc3)o2)n1 [Example 38] | 29 | – | –
COC(=O)c1cccc(-c2cnc(C(=O)CCc3ccc(-c4ccc(CN5CCN(C)CC5)cc4)cc3)o2)n1 [Example 39, 6-(2-{3-[4′-(4-Methyl-piperazin-1-ylmethyl)-biphenyl-4-yl]-propionyl}-oxazol-5-yl)-pyridine-2-carboxylic acid methyl ester] | 200 | – | –
O=C(O)c1cccc(-c2cnc(C(=O)CCc3ccc(-c4ccc(CN5CCCCC5)cc4)cc3)o2)n1 [Example 40, 6-{2-[3-(4′-Piperidin-1-ylmethyl-biphenyl-4-yl)-propionyl]-oxazol-5-yl}-pyridine-2-carboxylic acid] | 44 | – | –
O=C(O)c1cccc(-c2cnc(C(=O)CCc3ccc(-c4ccc(CN5CCSCC5)cc4)cc3)o2)n1 [Example 42, 6-{2-[3-(4′-Thiomorpholin-4-ylmethyl-biphenyl-4-yl)-propionyl]-oxazol-5-yl}-pyridine-2-carboxylic acid] | 28 | – | –
O=C(O)c1cccc(-c2cnc(C(=O)CCc3ccc(-c4ccc(CN5CCCC5)cc4)cc3)o2)n1 [Example 43, 6-{2-[3-(4′-Pyrrolidin-1-ylmethyl-biphenyl-4-yl)-propionyl]-oxazol-5-yl}-pyridine-2-carboxylic acid] | 127 | – | –
CN(C)Cc1ccc(-c2ccc(CCC(=O)c3ncc(-c4cccc(C(=O)O)n4)o3)cc2)cc1 [Example 44, 6-{2-[3-(4′-Dimethylaminomethyl-biphenyl-4-yl)-propionyl]-oxazol-5-yl}-pyridine-2-carboxylic acid] | 150 | – | –
CN1CCN(Cc2ccc(-c3ccc(CCC(=O)c4ncc(-c5cccc(C(=O)O)n5)o4)cc3)cc2)CC1 [Example 45, 6-(2-{3-[4′-(4-Methyl-piperazin-1-ylmethyl)-biphenyl-4-yl]-propionyl}-oxazol-5-yl)-pyridine-2-carboxylic acid] | 1230 | – | –
O=C(CCc1ccc(COc2ccccc2)cc1)c1ncc(-c2cccc(-c3nnn[nH]3)n2)o1 [Example 47, 3-(4-Phenoxymethyl-phenyl)-1-{5-[6-(1H-tetrazol-5-yl)-pyridin-2-yl]-oxazol-2-yl}-propan-1-one] | 21 | – | –
N#Cc1cccc(-c2cnc(C(=O)CCc3ccc(COc4ccccc4)cc3)o2)n1 [Example 48] | 3 | – | –

Next, values leading:

Ki [1] [nM] | IC50 (rat FAAH) [nM] | IC50 (FAAH) [nM] | SMILES
5300 | – | – | O=C(COc1ccc(OCc2ccccc2)cc1)c1ncc(-c2ccccn2)o1 [Example 11b, 2-(4-(Benzyloxy)phenoxy)-1-(5-(pyridin-2-yl)oxazol-2-yl)ethanone]
25 | – | – | O=C(CCc1cccc(OCc2ccccc2)c1)c1ncc(-c2ccccn2)o1 [Example 11c, 1-Oxo-1-[5-(2-pyridyl)oxazol-2-yl]-3-(3-(benzyloxy)phenyl)-propane]
2100 | – | – | O=C(COc1cccc(OCc2ccccc2)c1)c1ncc(-c2ccccn2)o1 [Example 11d, 2-(3-(Benzyloxy)phenoxy)-1-(5-(pyridin-2-yl)oxazol-2-yl)ethanone]
3.4 | – | – | O=C(CCc1ccc(Oc2ccccc2)cc1)c1ncc(-c2ccccn2)o1 [Example 11f, 1-Oxo-1-[5-(2-pyridyl)oxazol-2-yl]-3-(4-phenoxyphenyl)propane]
2 | – | – | O=C(CCc1ccc(Nc2ccccc2)cc1)c1ncc(-c2ccccn2)o1 [Example 11g, 1-Oxo-1-[5-(2-pyridyl)oxazol-2-yl]-3-(4-(phenylamino)phenyl)-propane]
3.2 | – | – | O=C(CCc1ccc(Cc2ccccc2)cc1)c1ncc(-c2ccccn2)o1 [Example 11h, 1-Oxo-1-[5-(2-pyridyl)oxazol-2-yl]-3-(4-benzylphenyl)propane]
2.2 | – | – | O=C(CCc1ccc(Sc2ccccc2)cc1)c1ncc(-c2ccccn2)o1 [Example 11i, 1-Oxo-1-[5-(2-pyridyl)oxazol-2-yl]-3-(4-(phenylthio)phenyl)propane]
